Experimental data reported in patent US9981964B2 (Agency for Science, Technology and Research, priority 2013, dated 2018).

Tested on: HEK293-STF3A cells
Experiment: STF3A assay (STF luciferase reporter in Wnt3A-expressing HEK293 cells)
Assay type: cell-based
Conditions: Homo sapiens, 24 h, 1 day of treatment
Text: HEK293-STF cell line was modified from Human embryonic kidney cell line HEK293 transfected with the STF reporter. HEK293-STF3A cell line was further modified from HEK293-STF cell line to express Wnt3A. This cell line was used to identify compounds that regulate either early or late signaling components of the Wnt pathway. These two cell lines were obtained from David Virshup's laboratory, Duke-NUS. L-Wnt3A (ATCC, #CRL-2647) cell line was used for providing Wnt3A conditioned media. The three cell lines were grown in DMEM with 10% FBS incubated in 37° C. with 5% CO2.
2×10^4 HEK293-STF3A cells in 75 μl culture media were seeded in each well of white 96 well plates (Greiner #655098) and incubated overnight at 37° C. 25 μl serially diluted compound was added to the cells to give final concentration of 50 μM to 1.5 nM. After 1 day of treatment, 100 μl of Steady-Glo Luciferase Assay reagent (#E2520, Promega) was added to each well and incubated for 10 minutes at room temperature. Luminescence was measured using Tecan Safire2 plate reader.

SMILES | IC50 [nM]
CN1C(=O)C2=C(C1=O)N(CC(=O)Nc1ccc(-c3ccc(F)cc3)nc1)CCC2 [Compound 152, N-(6-(4-fluorophenyl)pyridin-3-yl)-2-(6-methyl-5,7-dioxo-2,3,4,5,6,7-hexahydro-1H-pyrrolo[3,4-b]pyridin-1-yl)acetamide] | < 100
COc1cncc(-c2ccc(NC(=O)CN3CCCC4=C3C(=O)N(C3CC3)C4=O)nc2)c1 [Compound 147, 2-(6-cyclopropyl-5,7-dioxo-2,3,4,5,6,7-hexahydro-1H-pyrrolo[3,4-b]pyridin-1-yl)-N-(5′-methoxy-3,3′-bipyridin-6-yl)acetamide] | < 100
CC(C(=O)Nc1ccc(-c2cccnc2)nn1)N1CCCC2=C1C(=O)N(C)C2=O (stereo not shown) [Compound 60, 2-(6-methyl-5,7-dioxo-2,3,4,5,6,7-hexahydro-1H-pyrrolo[3,4-b]pyridin-1-yl)-N-(6-(pyridin-3-yl)pyridazin-3-yl)propanamide] | < 100
Cc1cc(-c2cccnc2)cnc1NC(=O)CN1CCCC2=C1C(=O)N(C)C2=O [Compound 113, 2-(6-methyl-5,7-dioxo-2,3,4,5,6,7-hexahydro-1H-pyrrolo[3,4-b]pyridin-1-yl)-N-(5-methyl-[3,3′-bipyridin]-6-yl)acetamide] | > 10000
Cc1ccc(-c2ccc(NC(=O)CN3CCCC4=C3C(=O)N(C)C4=O)cn2)cc1 [Compound 158, 2-(6-methyl-5,7-dioxo-2,3,4,5,6,7-hexahydro-1H-pyrrolo[3,4-b]pyridin-1-yl)-N-(6-(p-tolyl)pyridin-3-yl)acetamide] | < 100
CN1C(=O)c2c(n(CC(=O)Nc3ccc(-c4cccnc4)cn3)ccc2=O)C1=O [Compound 63, N-(3,3′-bipyridin-6-yl)-2-(6-methyl-4,5,7-trioxo-4,5,6,7-tetrahydro-1H-pyrrolo[3,4-b]pyridin-1-yl)acetamide] | < 1000
O=C(CN1CCCC2=C1C(=O)N(C1CC1)C2=O)Nc1ccc(-c2ccc(C(F)(F)F)cc2)nn1 [Compound 51, 2-(6-cyclopropyl-5,7-dioxo-2,3,4,5,6,7-hexahydro-1H-pyrrolo[3,4-b]pyridin-1-yl)-N-(6-(4-(trifluoromethyl)phenyl)pyridazin-3-yl)acetamide] | < 1000
CN1C(=O)C2=C(C1=O)N(CC(=O)Nc1ccc(-c3ccccc3)nc1)CCC2 [Compound 37, 2-(6-methyl-5,7-dioxo-2,3,4,5,6,7-hexahydro-1H-pyrrolo[3,4-b]pyridin-1-yl)-N-(6-phenylpyridin-3-yl)acetamide] | < 100
Cc1ccc(-c2ccc(NC(=O)CN3CCCC4=C3C(=O)N(C3CC3)C4=O)nn2)cn1 [Compound 86, 2-(6-cyclopropyl-5,7-dioxo-2,3,4,5,6,7-hexahydro-1H-pyrrolo[3,4-b]pyridin-1-yl)-N-(6-(6-methylpyridin-3-yl)pyridazin-3-yl)acetamide] | < 100
CN1C(=O)C2=C(C1=O)N(CC(=O)Nc1cnc(-c3ccccc3)cn1)CCC2 [Compound 12, 2-(6-methyl-5,7-dioxo-2,3,4,5,6,7-hexahydro-1H-pyrrolo[3,4-b]pyridin-1-yl)-N-(5-phenylpyrazin-2-yl)acetamide] | < 100
CN1C(=O)C2=C(C1=O)N(CC(=O)Nc1ccc(-c3cccc(C(F)(F)F)c3)nn1)CCC2 [Compound 50, 2-(6-methyl-5,7-dioxo-2,3,4,5,6,7-hexahydro-1H-pyrrolo[3,4-b]pyridin-1-yl)-N-(6-(3-(trifluoromethyl)phenyl)pyridazin-3-yl)acetamide] | < 100
CN1C(=O)C2=C(C1=O)N(CC(=O)Nc1cnc(-c3cncc(F)c3)cn1)CCC2 [Compound 141, N-(5-(5-fluoropyridin-3-yl)pyrazin-2-yl)-2-(6-methyl-5,7-dioxo-2,3,4,5,6,7-hexahydro-1H-pyrrolo[3,4-b]pyridin-1-yl)acetamide] | < 100
CC(C(=O)Nc1cc(-c2cccc(Cl)c2)no1)N1CCCC2=C1C(=O)N(C)C2=O (stereo not shown) [Compound 18, N-(3-(3-chlorophenyl)isoxazol-5-yl)-2-(6-methyl-5,7-dioxo-2,3,4,5,6,7-hexahydro-1H-pyrrolo[3,4-b]pyridin-1-yl)propanamide] | < 5000
Cc1nc(-c2ccc(NC(=O)CN3CCCC4=C3C(=O)N(C3CC3)C4=O)nc2)cs1 [Compound 15, 2-(6-cyclopropyl-5,7-dioxo-2,3,4,5,6,7-hexahydro-1H-pyrrolo[3,4-b]pyridin-1-yl)-N-(5-(2-methylthiazol-4-yl)pyridin-2-yl)acetamide] | < 100
Cc1ccc(-c2ccc(NC(=O)CN3CCCC4=C3C(=O)N(C3CC3)C4=O)nc2)cn1 [Compound 85, 2-(6-cyclopropyl-5,7-dioxo-2,3,4,5,6,7-hexahydro-1H-pyrrolo[3,4-b]pyridin-1-yl)-N-(6′-methyl-[3,3′-bipyridin]-6-yl)acetamide] | < 100
CN1C(=O)C2=C(C1=O)N(CC(=O)Nc1ccc(-c3ccncc3)cn1)CCC2 [Compound 88, N-([3,4′-bipyridin]-6-yl)-2-(6-methyl-5,7-dioxo-2,3,4,5,6,7-hexahydro-1H-pyrrolo[3,4-b]pyridin-1-yl)acetamide] | < 1000

SMILES | IC50 [nM]
CN1C(=O)C2=C(C1=O)N(CC(=O)Nc1ccc(-c3ccncc3)nc1)CCC2 [Compound 122, N-(2,4′-bipyridin-5-yl)-2-(6-methyl-5,7-dioxo-2,3,4,5,6,7-hexahydro-1H-pyrrolo[3,4-b]pyridin-1-yl)acetamide] | < 1000
Cc1cncc(-c2ccc(NC(=O)CN3CCCC4=C3C(=O)N(C3CC3)C4=O)nc2)n1 [Compound 128, 2-(6-cyclopropyl-5,7-dioxo-2,3,4,5,6,7-hexahydro-1H-pyrrolo[3,4-b]pyridin-1-yl)-N-(5-(6-methylpyrazin-2-yl)pyridin-2-yl)acetamide] | < 100
COc1ccccc1-c1ccc(NC(=O)CN2CCCC3=C2C(=O)N(C)C3=O)nn1 [Compound 28, N-(6-(2-methoxyphenyl)pyridazin-3-yl)-2-(6-methyl-5,7-dioxo-2,3,4,5,6,7-hexahydro-1H-pyrrolo[3,4-b]pyridin-1-yl)acetamide] | > 10000
CC(C(=O)Nc1ccc(-c2cccnc2)cn1)N1CCCC2=C1C(=O)N(C)C2=O (stereo not shown) [Compound 11, N-([3,3′-bipyridin]-6-yl)-2-(6-methyl-5,7-dioxo-2,3,4,5,6,7-hexahydro-1H-pyrrolo[3,4-b]pyridin-1-yl)propanamide] | < 100
Cc1ccc(-c2ccc(NC(=O)CN3CCCC4=C3C(=O)N(C3CC3)C4=O)nc2)nc1 [Compound 146, 2-(6-cyclopropyl-5,7-dioxo-2,3,4,5,6,7-hexahydro-1H-pyrrolo[3,4-b]pyridin-1-yl)-N-(5-methyl-2,3′-bipyridin-6′-yl)acetamide] | < 1000
O=C(CN1CCCC2=C1C(=O)N(C1CC1)C2=O)Nc1ccc(-c2cc(F)ccn2)cn1 [Compound 156, 2-(6-cyclopropyl-5,7-dioxo-2,3,4,5,6,7-hexahydro-1H-pyrrolo[3,4-b]pyridin-1-yl)-N-(4-fluoro-[2,3′-bipyridin]-6′-yl)acetamide] | < 100
O=C(CN1CCCC2=C1C(=O)N(C1CC1)C2=O)Nc1ccc(-c2cccnc2)nc1F [Compound 137] | < 100
CN1C(=O)C2=C(C1=O)N(CC(=O)Nc1ccc(-c3cccnc3)nn1)CCC2 [Compound 25, 2-(6-methyl-5,7-dioxo-2,3,4,5,6,7-hexahydro-1H-pyrrolo[3,4-b]pyridin-1-yl)-N-(6-(pyridin-3-yl)pyridazin-3-yl)acetamide] | < 100
CN1C(=O)C2=C(C1=O)N(CC(=O)Nc1ccc(-c3ccc(F)nc3)nn1)CCC2 [Compound 46, N-(6-(6-fluoropyridin-3-yl)pyridazin-3-yl)-2-(6-methyl-5,7-dioxo-2,3,4,5,6,7-hexahydro-1H-pyrrolo[3,4-b]pyridin-1-yl)acetamide] | < 100
CN1C(=O)C2=C(C1=O)N(CC(=O)Nc1ccc(-c3ccccn3)cn1)CCC2 [Compound 1, N-([2,3′-bipyridin]-6′-yl)-2-(6-methyl-5,7-dioxo-2,3,4,5,6,7-hexahydro-1H-pyrrolo[3,4-b]pyridin-1-yl)acetamide] | < 100
CN1C(=O)C2=C(C1=O)N(CC(=O)Nc1ccc(-c3ccc(C(F)(F)F)cc3)nn1)CCC2 [Compound 49, 2-(6-methyl-5,7-dioxo-2,3,4,5,6,7-hexahydro-1H-pyrrolo[3,4-b]pyridin-1-yl)-N-(6-(4-(trifluoromethyl)phenyl)pyridazin-3-yl)acetamide] | < 10000
O=C(CN1CCCC2=C1C(=O)N(C1CC1)C2=O)Nc1ccc(-c2cncc(C(F)(F)F)c2)nn1 [Compound 54, 2-(6-cyclopropyl-5,7-dioxo-2,3,4,5,6,7-hexahydro-1H-pyrrolo[3,4-b]pyridin-1-yl)-N-(6-(5-(trifluoromethyl)pyridin-3-yl)pyridazin-3-yl)acetamide] | < 100
CN1C(=O)C2=C(C1=O)N(CC(=O)Nc1ccc(-c3ccc(C(F)(F)F)nc3)nn1)CCC2 [Compound 45, 2-(6-methyl-5,7-dioxo-2,3,4,5,6,7-hexahydro-1H-pyrrolo[3,4-b]pyridin-1-yl)-N-(6-(6-(trifluoromethyl)pyridin-3-yl)pyridazin-3-yl)acetamide] | < 5000
CN1C(=O)C2=C(C1=O)N(CC(=O)Nc1ccc(-c3cncnc3)cc1)CCC2 [Compound 75, 2-(6-methyl-5,7-dioxo-2,3,4,5,6,7-hexahydro-1H-pyrrolo[3,4-b]pyridin-1-yl)-N-(4-(pyrimidin-5-yl)phenyl)acetamide] | < 100
CN1C(=O)C2=C(C1=O)N(CC(=O)Nc1ccc(-c3cncc(C(F)(F)F)c3)nn1)CCC2 [Compound 48, 2-(6-methyl-5,7-dioxo-2,3,4,5,6,7-hexahydro-1H-pyrrolo[3,4-b]pyridin-1-yl)-N-(6-(5-(trifluoromethyl)pyridin-3-yl)pyridazin-3-yl)acetamide] | < 100
